Calls of active or inactive are those of the source. No cut-off for these calls is given here.
Columns and labels:
Mesenchymal stem cells [1] = experiment: Induction of adiponectin synthesis in human differentiated BMMSC cells at 10 uM measured after 5 days in the presence of IDX induction medium by ELISA; format: functional, cell-based; settings: time 5.0 day
Mesenchymal stem cells [2] = experiment: Induction of adiponectin synthesis in human differentiated BMMSC cells assessed as fold increase in adiponectin level at 10 uM measured after 5 days in the presence of IDX induction medium by ELISA; format: functional; settings: time 5 day
Mesenchymal stem cells [3] = experiment: Induction of adiponectin synthesis in human differentiated BMMSC cells assessed as lipid accumulation at 10 uM measured after 5 days in the presence of IDX induction medium by Oil red O staining based inverted phase contrast microscope analysis; format: functional, cell-based; settings: time 5.0 day
Mesenchymal stem cells [4] = experiment: Upregulation of adiponectin mRNA expression in human BMMSC cells at 10 uM measured after 3 days by qRT-PCR analysis; format: functional, cell-based; settings: time 3.0 day
Mesenchymal stem cells [5] = experiment: Upregulation of FABP4 mRNA expression in human BMMSC cells at 10 uM measured after 3 days by qRT-PCR analysis; format: functional, cell-based; settings: time 3.0 day
Mesenchymal stem cells [6] = experiment: Upregulation of PPARgamma mRNA expression in human BMMSC cells at 10 uM measured after 3 days by qRT-PCR analysis; format: functional, cell-based; settings: time 3.0 day
Mesenchymal stem cells [7] = experiment: Induction of adiponectin synthesis in human differentiated BMMSC cells measured after 5 days in the presence of IDX induction medium by ELISA; format: functional, cell-based; settings: 120 h
[8] = molecular target: Estrogen receptor beta (Homo sapiens) (UniProt Q92731); experiment: Binding affinity to ERbeta (unknown origin) at 10 uM by Lanthascreen TR-FRET assay relative to control
[9] = molecular target: T1, Peroxisome proliferator-activated receptor gamma (Homo sapiens, UniProt P37231); experiment: Binding affinity to PPARgamma (unknown origin) assessed as inhibition constant by Lanthascreen TR-FRET assay relative to control
T1 sequence (P37231 whole entry): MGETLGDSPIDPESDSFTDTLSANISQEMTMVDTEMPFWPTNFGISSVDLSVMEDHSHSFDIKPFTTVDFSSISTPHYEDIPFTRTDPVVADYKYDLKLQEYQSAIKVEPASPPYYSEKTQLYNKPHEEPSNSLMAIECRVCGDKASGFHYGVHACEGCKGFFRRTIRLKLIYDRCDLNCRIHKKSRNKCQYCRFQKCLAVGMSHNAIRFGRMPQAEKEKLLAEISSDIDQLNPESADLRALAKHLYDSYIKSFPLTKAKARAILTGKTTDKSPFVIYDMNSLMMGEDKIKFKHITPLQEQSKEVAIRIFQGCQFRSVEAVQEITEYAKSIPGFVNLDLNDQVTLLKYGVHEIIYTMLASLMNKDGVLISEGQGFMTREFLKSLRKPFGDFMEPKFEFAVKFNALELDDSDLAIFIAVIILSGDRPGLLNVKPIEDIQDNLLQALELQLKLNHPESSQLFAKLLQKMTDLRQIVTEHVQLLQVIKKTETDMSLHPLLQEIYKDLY

Estrogen receptor beta (Homo sapiens), sequence (Q92731 whole entry): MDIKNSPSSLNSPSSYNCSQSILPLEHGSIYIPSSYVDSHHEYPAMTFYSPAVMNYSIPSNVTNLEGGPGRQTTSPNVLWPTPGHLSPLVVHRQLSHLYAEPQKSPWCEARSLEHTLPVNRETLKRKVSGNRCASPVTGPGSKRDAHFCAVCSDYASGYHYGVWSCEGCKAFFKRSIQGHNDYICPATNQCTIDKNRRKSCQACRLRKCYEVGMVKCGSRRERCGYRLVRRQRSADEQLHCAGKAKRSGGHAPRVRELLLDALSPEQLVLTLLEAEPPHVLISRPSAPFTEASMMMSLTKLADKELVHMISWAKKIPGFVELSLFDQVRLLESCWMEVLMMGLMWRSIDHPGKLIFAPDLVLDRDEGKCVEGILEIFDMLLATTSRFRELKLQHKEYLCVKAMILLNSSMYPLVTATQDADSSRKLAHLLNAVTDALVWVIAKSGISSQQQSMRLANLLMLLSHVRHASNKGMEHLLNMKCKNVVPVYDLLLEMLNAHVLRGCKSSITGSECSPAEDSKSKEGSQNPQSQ

Activity [8] [%]	Ki [9] [µM]	Structure (SMILES)	Activity (Mesenchymal stem cells [1])	fold change (FC) (Mesenchymal stem cells [2])	Activity (Mesenchymal stem cells [3])	Activity (Mesenchymal stem cells [4])	Activity (Mesenchymal stem cells [5])	Activity (Mesenchymal stem cells [6])	EC50 (Mesenchymal stem cells [7]) [µM]
		COc1cc(O)c2c(=O)c(OCc3ccccc3)c(-c3ccccc3)oc2c1	Active						
		COc1cc(OC(=O)c2ccccc2)cc2oc(-c3ccccc3)c(O)c(=O)c12	Active						
		COc1cc(OC(=O)c2ccccc2)cc2oc(-c3ccccc3)c(OCc3ccccc3)c(=O)c12	Active	2.76					
		COc1cc(OC)c2c(=O)c(OCc3ccccc3)c(-c3ccccc3)oc2c1	Active		Active	Active	Active	Active	
		COc1cc(O)cc2oc(-c3ccccc3)c(OCc3ccccc3)c(=O)c12	Active	2.88	Active	Active	Active	Active	14.9
79.4	5.6	O=c1c(O)c(-c2ccccc2)oc2cc(O)cc(O)c12 [GALANGIN]	Active		Active	Active	Active	Active	

Reference: ChEMBL document CHEMBL5120752, “Galangin 3-benzyl-5-methylether derivatives function as an adiponectin synthesis-promoting peroxisome proliferator-activated receptor γ partial agonist” (Bioorg Med Chem, 2022)
